From patent US20230159532A1, “PARATHYROID HORMONE (PTH) RECEPTOR ANTAGONISTS AND USES THEREOF” (Crinetics Pharmaceuticals, Inc., priority 2021, published 2023)

Target: T1, human PTHR1 receptor (Homo sapiens, UniProt Q03431)
T1 construct: purchased Eurofins HTS030M
T1 sequence (Q03431 27-593): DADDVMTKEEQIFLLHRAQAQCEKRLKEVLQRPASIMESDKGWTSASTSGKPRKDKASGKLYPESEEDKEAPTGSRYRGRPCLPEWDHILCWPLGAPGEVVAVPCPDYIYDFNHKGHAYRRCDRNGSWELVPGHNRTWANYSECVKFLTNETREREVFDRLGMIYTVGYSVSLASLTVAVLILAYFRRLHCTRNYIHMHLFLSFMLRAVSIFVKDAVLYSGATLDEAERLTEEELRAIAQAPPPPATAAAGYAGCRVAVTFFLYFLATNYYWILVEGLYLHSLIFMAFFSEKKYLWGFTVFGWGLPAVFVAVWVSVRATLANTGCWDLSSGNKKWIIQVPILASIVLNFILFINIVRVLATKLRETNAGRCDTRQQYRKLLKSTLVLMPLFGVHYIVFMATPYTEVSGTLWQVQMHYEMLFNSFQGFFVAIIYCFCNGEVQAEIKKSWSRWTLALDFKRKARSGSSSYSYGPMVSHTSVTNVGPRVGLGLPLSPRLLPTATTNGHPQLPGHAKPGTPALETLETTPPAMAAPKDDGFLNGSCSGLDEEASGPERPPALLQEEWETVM
Assay: Competitive antagonist binding assay for hPTH-R1 (radioactive competition binding, SPA beads)
Conditions: human PTHR1 membranes, [125I]-[Nle8,18,Tyr34]-PTH(1-34) 0.2 nM, 90 minutes at room temperature; read-out: hPTHR1 Ki
Experimental: Competitive Antagonist Binding Assay Protocol for hPTH-R1 Antagonists:
The inhibition of binding to the human PTHR1 receptor was measured in a radioactive competition binding assay using the radiolabeled [^125I]-[NLE^8,18, TYR^34]-parathyroid hormone (1-34) ligand (PerkinElmer Cat# NEX244, custom synthesis) as the probe ligand for the receptor. Briefly, membranes from cells expressing the human PTHR1 (Eurofins Cat# HTS030M) were incubated with SPA beads (PerkinElmer Cat# RPNQ0001) in binding assay buffer [50 mM HEPES (Biopioneer Cat# C0113), 5 mM MgCl2 (Sigma Cat# M8266), 10 mM CaCl2 (Fisher Scientific Cat# BP510), 0.1% BSA (Fisher Scientific Cat# BP1600), 0.01% TritonX-100 (Bio-Rad Cat#161-0407), and protease inhibitors (Pierce Cat# A32963); pH 7.4]. Membranes bound to SPA bead were treated with various dilutions of compounds (final concentrations typically 0-10,000 nM), and 0.2 nM radiolabeled ligand in 96-well isoplates (PerkinElmer Cat#6005040) for 90 minutes at room temperature. The radioactive signal was detected using a MicroBetaTriLux 1450 LSC (PerkinElmer). All data manipulations to determine the Ki values were performed using GraphPad v8 (GraphPad, San Diego Calif.).

Row | Molecule | Ki
1 | CNCCNc1cc(F)c(N2C(=O)N(CCOC)c3ncc(F)cc3-c3ccc(C#N)cc32)c(F)c1 [1-122, 10-(2,6-difluoro-4-{[2-(methylamino)ethyl]amino}phenyl)-4-fluoro-8-(2-methoxyethyl)-9-oxo-6,8,10-triazatricyclo[9.4.0.0^2,7]pentadeca-1(11),2(7),3,5,12,14-hexaene-13-carbonitrile] | < 0.1 µM
2 | CCC(CO)NCCNc1cc(F)c(N2C(=O)N(CC)c3ncc(Cl)cc3-c3ccc(C#N)cc32)c(F)c1 (stereo not drawn) [1-139, 4-chloro-10-[2,6-difluoro-4-({2-[(1-hydroxybutan-2-yl)amino]ethyl}amino)phenyl]-8-ethyl-9-oxo-6,8,10-triazatricyclo[9.4.0.0^2,7]pentadeca-1(11),2(7),3,5,12,14-hexaene-13-carbonitrile] | < 0.1 µM
3 | [2-({2-[(4-{13-cyano-8-ethyl-4-fluoro-9-oxo-6,8,10-triazatricyclo[9.4.0.0^2,7]pentadeca-1(11),2(7),3,5,12,14-hexaen-10-yl}-3,5-difluorophenyl)amino]ethyl}amino)ethyl]urea [1-169] | < 0.1 µM
4 | CCCN1C(=O)N(c2c(F)cc(NCCNC)cc2F)c2cc(C#N)ccc2-c2cc(F)cnc21 [1-117, 10-(2,6-difluoro-4-{[2-(methylamino)ethyl]amino}phenyl)-4-fluoro-9-oxo-8-propyl-6,8,10-triazatricyclo[9.4.0.0^2,7]pentadeca-1(11),2(7),3,5,12,14-hexaene-13-carbonitrile] | < 0.1 µM
5 | CNCCNc1cc(F)c(N2C(=O)N(C(C)C)c3ncc(F)cc3-c3c(C)cc(Cl)cc32)c(F)c1 [1-78, 13-chloro-10-(2,6-difluoro-4-{[2-(methylamino)ethyl]amino}phenyl)-4-fluoro-15-methyl-8-(propan-2-yl)-6,8,10-triazatricyclo[9.4.0.0^2,7]pentadeca-1(11),2(7),3,5,12,14-hexaen-9-one] | < 0.1 µM
6 | CCN1C(=O)N(c2c(F)cc(NCCN[C@@H](C)CO)cc2F)c2cc(C#N)ccc2-c2cc(Cl)cnc21 [1-185, 4-chloro-10-{2,6-difluoro-4-[(2-{[(2S)-1-hydroxypropan-2-yl]amino}ethyl)amino]phenyl}-8-ethyl-9-oxo-6,8,10-triazatricyclo[9.4.0.0^2,7]pentadeca-1(11),2(7),3,5,12,14-hexaene-13-carbonitrile] | < 0.1 µM
7 | CCN1C(=O)N(c2c(F)cc(NCCN[C@H](C)CO)cc2F)c2cc(C#N)ccc2-c2cc(Cl)cnc21 [1-173, 4-chloro-10-{2,6-difluoro-4-[(2-{[(2R)-1-hydroxypropan-2-yl]amino}ethyl)amino]phenyl}-8-ethyl-9-oxo-6,8,10-triazatricyclo[9.4.0.0^2,7]pentadeca-1(11),2(7),3,5,12,14-hexaene-13-carbonitrile] | < 0.1 µM
8 | CCN1C(=O)N(c2c(F)cc(NCCNC[C@@H](C)O)cc2F)c2cc(C#N)ccc2-c2cc(Cl)cnc21 [1-186, 4-chloro-10-{2,6-difluoro-4-[(2-{[(2R)-2-hydroxypropyl]amino}ethyl)amino]phenyl}-8-ethyl-9-oxo-6,8,10-triazatricyclo[9.4.0.0^2,7]pentadeca-1(11),2(7),3,5,12,14-hexaene-13-carbonitrile] | < 0.1 µM
9 | CCN1C(=O)N(c2c(F)cc(NCCNC[C@H](O)CO)cc2F)c2cc(C#N)ccc2-c2cc(F)cnc21 [1-200, 10-{4-[(2-{[(2S)-2,3-dihydroxypropyl]amino}ethyl)amino]-2,6-difluorophenyl}-8-ethyl-4-fluoro-9-oxo-6,8,10-triazatricyclo[9.4.0.0^2,7]pentadeca-1(11),2(7),3,5,12,14-hexaene-13-carbonitrile] | < 0.1 µM
10 | CCN1C(=O)N(c2c(F)cc(NCCNCCCC(=O)O)cc2F)c2cc(C#N)ccc2-c2cc(Cl)cnc21 [1-58, 4-({2-[(4-{4-chloro-13-cyano-8-ethyl-9-oxo-6,8,10-triazatricyclo[9.4.0.0^2,7]pentadeca-1(11),2(7),3,5,12,14-hexaen-10-yl}-3,5-difluorophenyl)amino]ethyl}amino)butanoic Acid] | < 0.1 µM
11 | CCN1C(=O)N(c2c(F)cc(NCCNC(C)CO)cc2F)c2cc(C#N)ccc2-c2cc(Cl)cnc21 (stereo not drawn) [1-149, 4-chloro-10-[2,6-difluoro-4-({2-[(1-hydroxypropan-2-yl)amino]ethyl}amino)phenyl]-8-ethyl-9-oxo-6,8,10-triazatricyclo[9.4.0.0^2,7]pentadeca-1(11),2(7),3,5,12,14-hexaene-13-carbonitrile] | < 0.1 µM
12 | CCN1C(=O)N(c2c(F)cc(NCCN[C@H](CO)C(=O)O)cc2F)c2cc(C#N)ccc2-c2cc(Cl)cnc21 [1-220, (2R)-2-({2-[(4-{4-chloro-13-cyano-8-ethyl-9-oxo-6,8,10-triazatricyclo[9.4.0.0^2,7]pentadeca-1(11),2(7),3,5,12,14-hexaen-10-yl}-3,5-difluorophenyl)amino]ethyl}amino)-3-hydroxypropanoic acid] | < 0.1 µM
13 | CCN1C(=O)N(c2c(F)cc(NCCNC[C@@H](C)O)cc2F)c2cc(C#N)ccc2-c2cc(F)cnc21 [1-203, 10-{2,6-difluoro-4-[(2-{[(2R)-2-hydroxypropyl]amino}ethyl)amino]phenyl}-8-ethyl-4-fluoro-9-oxo-6,8,10-triazatricyclo[9.4.0.0^2,7]pentadeca-1(11),2(7),3,5,12,14-hexaene-13-carbonitrile] | < 0.1 µM
14 | CNCCNc1cc(F)c(N2C(=O)N(C)c3ncccc3-c3ccc(Cl)cc32)c(F)c1 [1-1, 13-chloro-10-(2,6-difluoro-4-{[2-(methylamino)ethyl]amino}phenyl)-8-methyl-6,8,10-triazatricyclo[9.4.0.0^2,7]pentadeca-1(11),2(7),3,5,12,14-hexaen-9-one] | < 0.1 µM
15 | CCN1C(=O)N(c2c(F)cc(NCCNC3CCOC3)cc2F)c2cc(Cl)ccc2-c2cc(F)cnc21 (stereo not drawn) [1-20, 13-chloro-10-[2,6-difluoro-4-({2-[(oxolan-3-yl)amino]ethyl}amino)phenyl]-8-ethyl-4-fluoro-6,8,10-triazatricyclo[9.4.0.0^2,7]pentadeca-1(11),2(7),3,5,12,14-hexaen-9-one] | < 0.1 µM
16 | CCN1C(=O)N(c2c(F)cc(NCCNCCO)cc2F)c2cc(C#N)ccc2-c2cc(F)cnc21 [1-82, 10-[2,6-difluoro-4-({2-[(2-hydroxyethyl)amino]ethyl}amino)phenyl]-8-ethyl-4-fluoro-9-oxo-6,8,10-triazatricyclo[9.4.0.0^2,7]pentadeca-1(11),2(7),3,5,12,14-hexaene-13-carbonitrile] | < 0.1 µM
17 | CCN1C(=O)N(c2c(F)cc(NCCNC3CCOC3)cc2F)c2cc(Cl)ccc2-c2cccnc21 (stereo not drawn) [1-5, 13-chloro-10-[2,6-difluoro-4-({2-[(oxolan-3-yl)amino]ethyl}amino)phenyl]-8-ethyl-6,8,10-triazatricyclo[9.4.0.0^2,7]pentadeca-1(11),2(7),3,5,12,14-hexaen-9-one] | < 0.1 µM
18 | CCN1C(=O)N(c2c(F)cc(NCCN(C)CCCC(=O)O)cc2F)c2cc(Cl)ccc2-c2cc(Cl)cnc21 [1-70, 4-({2-[(4-{4,13-dichloro-8-ethyl-9-oxo-6,8,10-triazatricyclo[9.4.0.0^2,7]pentadeca-1(11),2(7),3,5,12,14-hexaen-10-yl}-3,5-difluorophenyl)amino]ethyl}(methyl)amino)butanoic acid] | < 0.1 µM
19 | CCN1C(=O)N(c2c(F)cc(NCCNCCO)cc2F)c2cc(Cl)cc(OC)c2-c2cc(F)cnc21 [1-88, 13-chloro-10-[2,6-difluoro-4-({2-[(2-hydroxyethyl)amino]ethyl}amino)phenyl]-8-ethyl-4-fluoro-15-methoxy-6,8,10-triazatricyclo[9.4.0.0^2,7]pentadeca-1(11),2(7),3,5,12,14-hexaen-9-one] | < 0.1 µM
20 | CCN1C(=O)N(c2c(F)cc(NCCNC)cc2F)c2cc(Cl)cc(C)c2-c2cc(Cl)cnc21 [1-36, 4,13-dichloro-10-(2,6-difluoro-4-{[2-(methylamino)ethyl]amino}phenyl)-8-ethyl-15-methyl-6,8,10-triazatricyclo[9.4.0.0^2,7]pentadeca-1(11),2(7),3,5,12,14-hexaen-9-one] | < 0.1 µM
21 | CCN1C(=O)N(c2c(F)cc(N3CCN(CCO)CC3)cc2F)c2cc(C#N)ccc2-c2cc(Cl)cnc21 [1-144, 4-chloro-10-{2,6-difluoro-4-[4-(2-hydroxyethyl)piperazin-1-yl]phenyl}-8-ethyl-9-oxo-6,8,10-triazatricyclo[9.4.0.0^2,7]pentadeca-1(11),2(7),3,5,12,14-hexaene-13-carbonitrile] | < 0.1 µM
